Laboratory results taken from patent US4870074A, “Substituted benzamide derivatives, for enhancing gastrointestinal motility” (priority 1986, dated 1989).

Tests used:
gastric emptying = experiment: Test 1: gastric emptying enhancing activity (phenol red test meal); assay type: in vivo, Male Wistar rats; details: po, 0.25 h, 60 min before test meal, rat, read-out: Gastric emptying enhancing activity, Increase (emptying rate vs control); for change in vivo at 2 mg/kg: 2.0 mg/kg p.o.
Method: The test was carried out according to the method of Scarpignato et al. [cf. Arch. int. Pharmacodyn., 246, 286-294 (1980)].
Male Wistar rats, weighing 130-150 g, were fasted for 18 hours before experimentation, and 1.5 ml of a test meal (phenol red 0.05% in a 1.5% aqueous methylcellulose solution) was given by gastric tube. Fifteen minutes after administration of the meal the stomach was removed and the amount of phenol red remaining in the stomach was measured.
The test compounds, dissolved or suspended in a 0.5% tragacanth solution, were orally administered 60 minutes before administration of the test meal. The rate of gastric emptying was calculated according to the amount of phenol red remaining in the stomach, and the activity of the test compounds was expressed in terms of increase in the emptying rate from the control. The number of animals used was 5 for the control and each dose of metoclopramide hydrochloride monohydrate and 4 for each dose of the other test compounds.

central nervous system = experiment: Test 3: effect on the central nervous system (CNS effect), Irwin observation; details: 100 mg/kg, p.o., mouse, 2 hours observation
Method: Male ddY mice, weighing 18-25 g, were used in groups of 3 animals each. […] Psychopharmacologia, 13, 222-227 (1968)], comprehensive observation of behavioral and physiologic states were carried out for 2 hours after the oral treatment with 100 mg/kg of the test compound, dissolved or suspended in a 0.5% tragacanth solution. Liability of the test compounds to the central nervous system effect was expressed with the following marks, according to the total sum of potencies for the individually analyzed effects, such as catalepsy, ptosis, hypolocomotin, etc.

With `CC(O)COc1cc(N)c(Cl)cc1C(=O)NCC1CN(Cc2ccccc2)CCO1` (stereo not shown) [Example 105] the change in vivo at 2 mg/kg (gastric emptying) was 52% and the CNS effect (central nervous system) was “-”.
For `CCCCOc1cc(N)c(Cl)cc1C(=O)NCC1CN(Cc2ccccc2Cl)CCO1` (stereo not shown) [Example 90], the change in vivo at 2 mg/kg (gastric emptying) was 55.4% and the CNS effect (central nervous system) was “-”.
With `CCOc1cc(N)c(Cl)cc1C(=O)NCC1CN(Cc2ccccc2Cl)CCO1` (stereo not shown) [66(1)] the change in vivo at 2 mg/kg (gastric emptying) was 41.3% and the CNS effect (central nervous system) was “-”.
`CCOc1cc(N)c(Cl)cc1C(=O)NCC1CN(Cc2ccncc2)CCO1` (stereo not shown) [Example 81] was tested, and the change in vivo at 2 mg/kg (gastric emptying) was 52.9% and the CNS effect (central nervous system) was “-”.
`CCOc1cc(N)c(Cl)cc1C(=O)NCC1CN(Cc2cccc(Cl)c2)CCO1` (stereo not shown) [Example 67] was tested, and the change in vivo at 2 mg/kg (gastric emptying) was 57.5% and the CNS effect (central nervous system) was “-”.
`CCOc1cc(N)c(Cl)cc1C(=O)NCCC1CN(Cc2ccccc2)CCO1` (stereo not shown) [Example 8, 4-amino-N-[2-(4-benzyl-2-morpholinyl)ethyl]-5-chloro-2-ethoxybenzamide] was tested, and the change in vivo at 2 mg/kg (gastric emptying) was 44.9% and the CNS effect (central nervous system) was “-”.
With `CCOc1cc(N)c(Cl)cc1C(=O)NCC1CN(Cc2ccccc2)CCO1` (stereo not shown) [63(1), 4-amino-N-[(4-benzyl-2-morpholinyl)methyl]-5-chloro-2-ethoxybenzamide] the change in vivo at 0.5 mg/kg (gastric emptying; 0.5 mg/kg p.o.) was 33.9%, the change in vivo at 2 mg/kg (gastric emptying) was 54.4% and the CNS effect (central nervous system) was “-”.
With `CC(C)CCOc1cc(N)c(Cl)cc1C(=O)NCC1CN(Cc2ccccc2Cl)CCO1` (stereo not shown) [Example 95] the change in vivo at 0.2 mg/kg (gastric emptying; 0.2 mg/kg p.o.) was 34.7%, the change in vivo at 2 mg/kg (gastric emptying) was 61.6% and the CNS effect (central nervous system) was “-”.
For `CC(C)CCOc1cc(N)c(Cl)cc1C(=O)NCC1CN(Cc2ccc(F)cc2)CCO1` (stereo not shown) [Example 94], the change in vivo at 2 mg/kg (gastric emptying) was 52% and the CNS effect (central nervous system) was “-”.
`C=CCCOc1cc(N)c(Cl)cc1C(=O)NCC1CN(Cc2ccccc2)CCO1` (stereo not shown) [Example 119] was tested, and the change in vivo at 2 mg/kg (gastric emptying) was 48.4% and the CNS effect (central nervous system) was “-”.
